The source of these data is ChEMBL document CHEMBL5331117, “X-Ray Conformation and Structure-Activity Relationships of MA026, a Reversible Tight Junction Opener” (J Med Chem, 2023).

The structures appear in SMILES notation.

One assay concerns MDCK-II. Nature of the assay: Induction of claudin-1 mediated tight junction opening in MDCK-II cells assessed as increase in FITC-conjugated dextran incubated for 5 hrs relative to control. The following applies: Canis lupus familiaris. Also on record: concentration or dose not given beside the values. Format: cell-based.
For `CCCCCCC[C@@H](O)CC(=O)N[C@@H](CC(C)C)C(=O)N[C@H](CCC(=O)O)C(=O)N[C@H](CCC(N)=O)C(=O)N[C@@H](C(=O)N[C@H](CC(C)C)C(=O)N[C@@H](CCC(N)=O)C(=O)N[C@@H]1COC(=O)[C@H]([C@@H](C)CC)NC(=O)[C@@H](CCC(N)=O)NC(=O)[C@H](C)NC(=O)[C@H](CC(C)C)NC(=O)[C@@H](CCC(N)=O)NC(=O)[C@@H](CC(C)C)NC(=O)[C@@H](C(C)C)NC1=O)C(C)C`, the Activity came out at 9.8%. For `CC[C@H](C)[C@@H]1NC(=O)[C@@H](CCC(N)=O)NC(=O)[C@H](CC(C)C)NC(=O)[C@H](CC(C)C)NC(=O)[C@@H](CCC(N)=O)NC(=O)[C@@H](CC(C)C)NC(=O)[C@@H](C(C)C)NC(=O)[C@H](NC(=O)[C@H](CCC(N)=O)NC(=O)[C@@H](CC(C)C)NC(=O)[C@H](NC(=O)[C@@H](CCC(N)=O)NC(=O)[C@@H](CCC(=O)O)NC(=O)[C@H](CC(C)C)NC(C)=O)C(C)C)COC1=O`, the Activity is -2.8%.

Turning to `CCCCCCCCCC(=O)N[C@@H](CC(C)C)C(=O)N[C@H](CCC(=O)O)C(=O)N[C@H](CCC(N)=O)C(=O)N[C@@H](C(=O)N[C@H](CC(C)C)C(=O)N[C@@H](CCC(N)=O)C(=O)N[C@@H]1COC(=O)[C@H]([C@@H](C)CC)NC(=O)[C@@H](CCC(N)=O)NC(=O)[C@H](CC(C)C)NC(=O)[C@H](CC(C)C)NC(=O)[C@@H](CCC(N)=O)NC(=O)[C@H](CC(C)C)NC(=O)[C@@H](C(C)C)NC1=O)C(C)C`, the Activity turned out to be 3.8%. On to `CCCCCCCCCC(=O)N[C@@H](CC(C)C)C(=O)N[C@H](CCC(=O)O)C(=O)N[C@H](CCC(N)=O)C(=O)N[C@@H](C(=O)N[C@H](CC(C)C)C(=O)N[C@@H](CCC(N)=O)C(=O)N[C@@H]1COC(=O)[C@@H]([C@@H](C)CC)NC(=O)[C@@H](CCC(N)=O)NC(=O)[C@H](CC(C)C)NC(=O)[C@H](CC(C)C)NC(=O)[C@@H](CCC(N)=O)NC(=O)[C@@H](CC(C)C)NC(=O)[C@@H](C(C)C)NC1=O)C(C)C`, for which the Activity stood at 18.3%.

The same assay, now with this note: Canis lupus familiaris, filed as opener.
Consider `CCCCCCC[C@@H](O)CC(=O)N[C@@H](CC(C)C)C(=O)N[C@H](CCC(=O)O)C(=O)N[C@H](CCC(N)=O)C(=O)N[C@@H](C(=O)N[C@H](CC(C)C)C(=O)N[C@@H](CCC(N)=O)C(=O)N[C@@H]1COC(=O)[C@H]([C@@H](C)CC)NC(=O)[C@@H](C)NC(=O)[C@H](CC(C)C)NC(=O)[C@H](CC(C)C)NC(=O)[C@@H](CCC(N)=O)NC(=O)[C@@H](CC(C)C)NC(=O)[C@@H](C(C)C)NC1=O)C(C)C`, for which the Activity came to 122%. On to `CCCCCCC[C@@H](O)CC(=O)N[C@@H](CC(C)C)C(=O)N[C@H](CCC(=O)O)C(=O)N[C@H](CCC(N)=O)C(=O)N[C@@H](C(=O)N[C@H](CC(C)C)C(=O)N[C@@H](C)C(=O)N[C@@H]1COC(=O)[C@H]([C@@H](C)CC)NC(=O)[C@@H](CCC(N)=O)NC(=O)[C@H](CC(C)C)NC(=O)[C@H](CC(C)C)NC(=O)[C@@H](CCC(N)=O)NC(=O)[C@@H](CC(C)C)NC(=O)[C@@H](C(C)C)NC1=O)C(C)C`, for which the Activity amounted to 94.8%.

Take `CCCCCCCCCC(=O)N[C@@H](CC(C)C)C(=O)N[C@H](CCC(=O)O)C(=O)N[C@H](CCC(N)=O)C(=O)N[C@@H](C(=O)N[C@H](CC(C)C)C(=O)N[C@@H](CCC(N)=O)C(=O)N[C@@H]1COC(=O)[C@H]([C@@H](C)CC)NC(=O)[C@H](CCC(N)=O)NC(=O)[C@H](CC(C)C)NC(=O)[C@H](CC(C)C)NC(=O)[C@@H](CCC(N)=O)NC(=O)[C@@H](CC(C)C)NC(=O)[C@@H](C(C)C)NC1=O)C(C)C`: the Activity amounted to 63.3%.

For `CCCCCCC[C@@H](O)CC(=O)N[C@@H](CC(C)C)C(=O)N[C@H](CCC(=O)O)C(=O)N[C@H](CCC(N)=O)C(=O)N[C@@H](C(=O)N[C@H](CC(C)C)C(=O)N[C@@H](CCC(N)=O)C(=O)N[C@@H]1COC(=O)[C@H]([C@@H](C)CC)NC(=O)[C@@H](CCC(N)=O)NC(=O)[C@H](CC(C)C)NC(=O)[C@H](CC(C)C)NC(=O)[C@@H](C)NC(=O)[C@@H](CC(C)C)NC(=O)[C@@H](C(C)C)NC1=O)C(C)C`, the Activity is 85.3%.
